Data set [1] relates to human myeloid leukemia HL-60 cells. The data set is described as follows: in vitro.
Data set [2] relates to S. aureus ATCC 43300 (MRSA). The data set is described as follows: Antibacterial liquid microdilution (CLSI M07-A8). Type of data set: cell-based, Staphylococcus aureus. Conditions: 18 to 24 h. (Dilution methods test growth across graded concentrations, often in twofold steps.)
Data set [3] deals with S. aureus ATCC 700787 (VISA). In words: Antibacterial liquid microdilution (CLSI M07-A8). Type of data set: cell-based, Staphylococcus aureus. The settings on record: 18 to 24 h.
The test system of data set [4] is S. aureus ATCC 29213 (MSSA). The data set is described as follows: Antibacterial liquid microdilution (CLSI M07-A8). Type of data set: cell-based, Staphylococcus aureus. Conditions: 18 to 24 h.
In a further data set the test system is U87-MG (glioblastoma). The data set is described as follows: MTT cytotoxicity assay, U87-MG. Type of data set: cell-based, human. For orientation: Tetrazolium dyes change colour on reduction, which living cells bring about.
Data set [5] deals with MDA-MB-231 (triple negative breast adenocarcinoma). In words: MTT cytotoxicity assay, MDA-MB-231. Type of data set: cell-based, human.
Experimental: (§1) Anticancer activity of cymantrenes was determined using a panel of human cancer cell lines that were derived from solid tumors. […] The inhibitory effect of cymantrene derivatives on cell proliferation and growth was determined based on survival curves and was expressed as IC50 values (concentration required to achieve a 50% decrease in cell viability when compared to the viability of untreated control cells) calculated using GraphPad Prism 4.02 software for Windows (GraphPad Software, San Diego, CA, USA). Cell viability was determined by the MTT microplate spectrophotometric cytotoxicity test.
(§2) Cells were grown as a monolayer in DMEM growth medium, supplemented with 10% FBS, penicillin (10 U/mL) and streptomycin (50 μg/mL), under standard conditions (37 °C, 5% CO2 and 95% air, 100% humidity) and periodically checked for Mycoplasma contamination.
(§3) The cytotoxicity of cymantrene derivatives was evaluated by the MTT microplate methods as described elsewhere [67] by incubating the cells with increasing concentrations of tested compounds for 24 h. Briefly, 0.1 mL of logarithmically growing cells were seeded in a 96-well microplate (5 × 10^4 cells/well) a day before the experiments and after 24 h of culture, tested compounds, dissolved in DMSO, and diluted in culture medium, were added. […] After further incubation for 24 h, the medium was replaced with fresh medium and the cells were allowed to grow for additional 48 h. Then, the medium was aspirated and 0.05 mL of MTT (final concentration of 5 mg/mL medium) added to each well, and the cells were incubated for further 4 h. The absorbance of the product, resulting from the MTT reduction, was read with a microplate reader at 545 nm. The percentage of viable cells was calculated by comparing the absorbance of treated cells with that of the untreated control cells (taken as 100%). The IC50 concentration of each compound was calculated from the cell survival curves using GraphPad Prism 4.02 software for Windows (GraphPad Software, San Diego, CA, USA).
In the next data set the test system is SKOV-3 cells. In words: Autophagy (acidic vesicular organelles, AVOs), acridine orange staining. Type of data set: cell-based, human. Conditions: SKOV-3, IC50 concentrations 24 h, then 0, 24 or 48 h drug-free. The procedure:
To determine the mode of cell death that was triggered by cymantrene derivatives, appropriately stained SKOV-3 cells were evaluated for morphological changes using fluorescence microscopy. For evaluation of apoptosis and autophagy, cells were stained with Hoechst 33258/propidium iodide to distinguish between live, apoptotic and necrotic cells and reveal condensed chromatin and apoptotic bodies (a hallmark of apoptosis), and with acridine orange to detect the development of acidic vesicular organelles (AVOs—a hallmark of autophagy).
One day prior to the experiments, cells were seeded at the appropriate density into 35 mm diameter dishes. […] At the end of incubation, the medium was aspirated, the cell monolayer was washed twice with pre-warmed PBS, and fresh medium was added. The cells were cultured in drug-free medium for an additional 24 or 48 h to enable them to recover after the exposure to the compounds and to repair any induced damages.
The ability of tested compounds to induce autophagosome formation inside cells (the process associated with the induction of autophagy) was evaluated by microscopic examination of the morphology of cells stained with acridine orange (AO).

The test system of data set [6] is HepG2 (hepatocellular carcinoma). In words: MTT cytotoxicity assay, HepG2. Type of data set: cell-based, human.
Experimental: as §1, §2, §3
Data set [7] has as its system SKOV-3 (ovarian adenocarcinoma). In words: MTT cytotoxicity assay, SKOV-3. Type of data set: cell-based, human.
Experimental: as §1, §2, §3
Data set [8] has as its system S. epidermidis ATCC 12228. The data set is described as follows: Antibacterial liquid microdilution (CLSI M07-A8). Type of data set: cell-based, Staphylococcus epidermidis. Conditions: 18 to 24 h.
Data set [9] concerns E. coli ATCC BAA-198 (ESBL). The data set is described as follows: Antibacterial liquid microdilution (CLSI M07-A8). Conditions: 18 to 24 h. Type of data set: cell-based, Escherichia coli.
Data set [10] deals with bloodstream forms of T. brucei clone 427-221a. In words: Trypanocidal assay, resazurin viability assay. Type of data set: cell-based, Trypanosoma brucei. Conditions: for GI50: 50% growth inhibition; for MIC: concentration at which all cells were killed, determined microscopically; for Selectivity GI50 Ratio / Selectivity MIC Ratio: ratio of cytotoxic (HL-60) to trypanocidal (T. brucei) activity. A digest of the protocol:
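Trypanosomes seeded at 10^4/mL and HL-60 at 5 × 10^4/mL with compound (final DMSO 0.9%), 37 °C, 5% CO2. After 24 h, resazurin added and cells incubated a further 48 h; absorbance 570 nm (reference 630 nm). GI50 by linear interpolation; MIC judged microscopically.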

Data set [11] concerns MCF-7 (hormone-responsive breast adenocarcinoma). The data set is described as follows: MTT cytotoxicity assay, MCF-7. Type of data set: cell-based, human.
Experimental: as §1, §2, §3

Read-outs that look alike come from different tables or passages of the source.

Experimental for U87-MG (glioblastoma): as §1, §2, §3

Broadly, the GI50 is the concentration at which growth is held to half of that of the control. As a reminder, the IC50 is the midpoint of a concentration-inhibition curve. In general, MIC refers to the lowest concentration that inhibits growth of the organism. A higher MIC goes with a need for much substance. On to `O=C(CCn1cc(F)c(=O)[nH]c1=O)[C]12[CH]3[CH]4[CH]5[CH]1[Mn]4532.[C-]#[O+].[C-]#[O+].[C-]#[O+]` (centres unmarked) [Compound 1], for which the GI50 amounted to 33.1 ± 3.4 µM in data set [1] and 3.02 ± 0.14 µM in data set [10]. For the same compound, in [1], the “HL-60 MIC” value was 100 µM. In addition, the “MIC, S. aureus ATCC 43300 (MRSA)” value in data set [2] amounted to 32 µg/mL. Moreover, in data set [3], the “MIC, S. aureus ATCC 700787 (VISA)” value stood at 32 µg/mL. Moreover, the “MIC, S. aureus ATCC 29213 (MSSA)” value in data set [4] came to 64 µg/mL. In addition, the IC50 amounted to 64.5 ± 3.22 µM with U87-MG (glioblastoma); 27.9 ± 1.11 µM in [5]; 114 ± 2.72 µM in [6]; 75.1 ± 3.76 µM in [7]; 70.5 ± 2.52 µM in data set [11]. For the same compound, in the data set on SKOV-3 cells, the “induction of autophagy (cells containing AVOs)” value was “Less induction of autophagy”. Besides, the “MIC, S. epidermidis ATCC 12228” value in [8] was found to be 8 µg/mL. For the same compound, the “MIC, E. coli ATCC BAA-198” value in [9] is greater than 512 µg/mL. Moreover, in data set [10] (HL-60 / T. brucei), the “MIC and GI50 ratios of cytotoxic to trypanocidal activities” value was 7–13. The same compound registered an MIC in data set [10] of 10 µM. In addition, the “Selectivity GI50 Ratio” value in data set [10] was found to be 11.0. Further, the “Selectivity MIC Ratio” value in data set [10] was 10.
For `O=[C]=[Mn](=[C]=O)(=[C]=O)[CH]1C=CC=C1` [CymH, tricarbonyl(η^5-cyclopentadienyl)manganese, reference compound], the “HL-60 MIC” value in data set [1] (concentration at which all cells were killed) was greater than 100 µM. The concentration for 50% growth inhibition (GI50) in data set [1] (read-out: HL-60 GI50, 50% growth inhibition) was greater than 100 µM; in [10], 44.6 ± 12.3 µM. The “MIC, S. aureus ATCC 43300 (MRSA)” value in data set [2] was greater than 512 µg/mL. In addition, the “MIC, S. aureus ATCC 700787 (VISA)” value in [3] is greater than 512 µg/mL. In addition, the “MIC, S. aureus ATCC 29213 (MSSA)” value in data set [4] was greater than 512 µg/mL. For the same compound, the IC50 turned out to be 84.4 ± 4.22 µM in the data set with U87-MG (glioblastoma) (24 h incubation, MTT, means ± SEM, read-out: cytotoxicity IC50, U87-MG); 68.6 ± 1.74 µM in data set [5] (24 h incubation, MTT, means ± SEM, read-out: cytotoxicity IC50, MDA-MB-231); 74.7 ± 3.73 µM in [6] (24 h incubation, MTT, means ± SEM, read-out: cytotoxicity IC50, HepG2); 121 ± 3.05 µM in [7] (24 h incubation, MTT, means ± SEM, read-out: cytotoxicity IC50, SKOV-3); 86 ± 1.3 µM in [11] (24 h incubation, MTT, means ± SEM, read-out: cytotoxicity IC50, MCF-7). In the data set on SKOV-3 cells, the “induction of autophagy (cells containing AVOs)” value is “greatest autophagic changes”. Also, in data set [8], the “MIC, S. epidermidis ATCC 12228” value was greater than 512 µg/mL. Also, the “MIC, E. coli ATCC BAA-198” value in data set [9] is greater than 512 µg/mL. This compound came in with a minimum inhibitory concentration (MIC) in [10] of 100 µM. Moreover, the “Selectivity GI50 Ratio” value in data set [10] is on record as greater than 2.2. For the same compound, the “Selectivity MIC Ratio” value in data set [10] is given as greater than 1.
